Measurements published in paper PMC12931196, “Vm–MSI: a Vancomycin–Antimicrobial Peptide Conjugate Combating Resistant Bacteria and Broadening the Antimicrobial Spectrum” (Advanced Science, 2025).
Like-named read-outs stand apart in the source and are kept apart here. Ends that are not written are not given here.

What was measured:
B. cereus CMCC63301 = experiment: MIC, 2 fold broth microdilution; assay type: cell-based; settings: MH broth, 37 °C, 18 h, OD600
Procedure: (§1) The 2 fold broth microdilution method was performed following previously established protocols.^[ [65], [66] ^] A total of 29 strains of human pathogenic microorganisms (11 Gram‐positive and 18 Gram‐negative) were included in the assay. Standard strains were maintained in our laboratory, and clinical isolates were obtained from the Fourth Affiliated Hospital of Soochow University. […] Gradient dilutions of the drugs (vancomycin, AMPs, and vancomycin‐AMP conjugates) were prepared in 96‐well plates, with 50 µL of each drug solution added per well. For the vancomycin and AMP mixture, 25 µL of vancomycin was combined with 25 µL of AMP at the corresponding monomer gradient concentration, resulting in a total volume of 50 µL. […] Following incubation, bacterial growth was assessed by measuring absorbance at 600 nm. The MIC was defined as the lowest concentration at which no bacterial growth was detected.

P. aeruginosa 60357 = experiment: MIC, 2 fold broth microdilution; assay type: cell-based; settings: MH broth, 37 °C, 18 h, OD600
Procedure: as §1

P. aeruginosa 52097 = experiment: MIC, 2 fold broth microdilution; assay type: cell-based; settings: MH broth, 37 °C, 18 h, OD600
Procedure: as §1

S. typhimurium CICC21483 = experiment: MIC, 2 fold broth microdilution; assay type: cell-based; settings: MH broth, 37 °C, 18 h, OD600
Procedure: as §1

S. flexneri ATCC12022 = experiment: MIC, 2 fold broth microdilution; assay type: cell-based; settings: MH broth, 37 °C, 18 h, OD600
Procedure: as §1

P. aeruginosa CMCC10104 = experiment: MIC, 2 fold broth microdilution; assay type: cell-based; settings: MH broth, 37 °C, 18 h, OD600
Procedure: as §1

[1] = test system: V. parahemolyticus ATCC17802; experiment: MIC, 2 fold broth microdilution; assay type: cell-based; settings: MH broth, 37 °C, 18 h, OD600
Procedure: as §1

S. flexneri CMCC51571 = experiment: MIC, 2 fold broth microdilution; assay type: cell-based; settings: MH broth, 37 °C, 18 h, OD600
Procedure: as §1

E. coli ATCC25922 [2] = experiment: Live/dead bacteria staining (PI/SYTO9, CLSM); assay type: cell-based; settings: 4 µM, 1 h
MDR K. pneumoniae 2 = settings: MH broth, 37 °C, 18 h, OD600
[3] = test system: S. aureus CMCC26003 biofilm; experiment: Biofilm inhibition, crystal violet; assay type: cell-based; settings: 4 µM, 48 h, OD595
Procedure: (§2) The mixture was incubated in a 96‐well plate for 48 h. Subsequent steps, including washing, fixation, staining, and OD measurement, were performed as described in the biofilm eradication assay.

MDR K. pneumoniae 4 = settings: MH broth, 37 °C, 18 h, OD600
C. perfringens ATCC13124 = settings: MH broth, 37 °C, 18 h, OD600
[4] = test system: 29 bacterial strains (11 Gram‐positive, 18 Gram‐negative); experiment: GM of the MICs across the 29 bacterial strains; assay type: cell-based; settings: MIC values exceeding 100 µg mL^−1 defaulted to 100 µg mL^−1
Procedure: as §1

human erythrocytes = experiment: Hemolytic activity assay; assay type: cell-based; settings: 32 µM; human blood cells, 37 °C, 30 min, A540, 1% Triton X‐100 positive control
VRSA 52 biofilms = settings: 8 µM, 4 h, SYTO9/PI CLSM
MDR A. baumannii 1 = settings: MH broth, 37 °C, 18 h, OD600
[5] = test system: E. coli ATCC25922 biofilms; settings: 8 µM, 4 h, SYTO9/PI CLSM
VRSA 52 biofilm = assay type: cell-based, S. aureus; settings: 4 µM, 48 h, crystal violet, OD595
Procedure: as §2

MDR K. pneumoniae 3 = settings: MH broth, 37 °C, 18 h, OD600
[6] = test system: MDR P. aeruginosa 5 biofilm; assay type: cell-based; settings: 4 µM, 48 h, crystal violet, OD595
Procedure: as §2

[7] = test system: E. coli ATCC25922 biofilm; assay type: cell-based; settings: 4 µM, 48 h, crystal violet, OD595
Procedure: as §2

E. coli ATCC25922 [8] = experiment: Antimicrobial resistance development assay; assay type: cell-based; settings: E. coli ATCC25922 cultured at sub‐MIC
VRSA 11 = settings: 11, 18 h
S. aureus ATCC29213 = settings: ATCC29213, 18 h
K. pneumoniae 9883 = settings: 9883, 18 h
E. faecalis ATCC29212 = settings: ATCC29212, 18 h
S. aureus CMCC26003 = settings: CMCC26003, 18 h
A. baumannii ATCC19606 = settings: ATCC19606, 18 h
S. aureus 15772 = settings: 15772, 18 h
MRSA ATCC43300 = settings: ATCC43300, 18 h
P. aeruginosa ATCC27853 = settings: ATCC27853, 18 h
S. aureus 15192 = settings: 15192, 18 h
E. coli ATCC25922 [9] = settings: ATCC25922, 18 h
S. typhimurium ATCC14028 = settings: ATCC14028, 18 h
13 bacterial strains = experiment: GM of MIC from tested bacterial strains (Table S2); assay type: cell-based; settings: 13 strains of Table S2
Procedure: as §1

VRSA 52 = settings: VRSA 52; MH broth, 37 °C, 18 h, OD600

| Molecule | MIC (B. cereus CMCC63301) | MIC (P. aeruginosa 60357) | MIC (P. aeruginosa 52097) | MIC (S. typhimurium CICC21483) | MIC (S. flexneri ATCC12022) | MIC (P. aeruginosa CMCC10104) | MIC [1] | MIC (S. flexneri CMCC51571) | bacteria killed (mortality) (E. coli ATCC25922 [2]) | MIC (MDR K. pneumoniae 2) | MIC (MDR K. pneumoniae 4) | MIC (C. perfringens ATCC13124) | GM: Geometric mean of the MICs across the 29 bacterial strains [4] | killing in the middle layer of the biofilm (VRSA 52 biofilms) [%] | MIC (MDR A. baumannii 1) | MIC (MDR K. pneumoniae 3) | MIC (S. aureus ATCC29213) | MIC (K. pneumoniae 9883) | MIC (E. faecalis ATCC29212) | also measured |
| --- | --- | --- | --- | --- | --- | --- | --- | --- | --- | --- | --- | --- | --- | --- | --- | --- | --- | --- | --- | --- |
| CC[C@H](C)[C@H](NC(=O)CNC(=O)[C@@H](N)CSC1CC(=O)N(CC2CCC(C(=O)N(C)[C@H](CC(C)C)C(=O)N[C@H]3C(=O)N[C@@H](CC(N)=O)C(=O)N[C@H]4C(=O)N[C@H]5C(=O)N[C@H](C(=O)N[C@H](C(=O)O)c6cc(O)cc(O)c6-c6cc5ccc6O)[C@H](O)c5ccc(c(Cl)c5)Oc5cc4cc(c5O[C@@H]4O[C@H](CO)[C@@H](O)[C@H](O)[C@H]4O[C@H]4C[C@](C)(N)[C@H](O)[C@H](C)O4)Oc4ccc(cc4Cl)[C@H]3O)CC2)C1=O)C(=O)NCC(=O)N[C@@H](CCCCN)C(=O)N[C@@H](Cc1ccccc1)C(=O)N[C@@H](CC(C)C)C(=O)N[C@@H](CCCCN)C(=O)N[C@@H](CCCCN)C(=O)N[C@@H](C)C(=O)N[C@@H](CCCCN)C(=O)N[C@@H](CCCCN)C(=O)N[C@@H](Cc1ccccc1)C(=O)NCC(=O)N[C@@H](CCCCN)C(=O)N[C@@H](C)C(=O)N[C@@H](Cc1ccccc1)C(=O)N[C@H](C(=O)N[C@@H](CCCCN)C(=O)N[C@H](C(=O)N[C@@H](CC(C)C)C(=O)N[C@@H](CCCCN)C(=O)N[C@@H](CCCCN)C(N)=O)[C@@H](C)CC)C(C)C (stereo partly shown) [Vm‐MSI] | 2.21(9.38) µM | 2.21(9.38) µM | 2.21(9.38) µM | 4.42(18.75) µM | 1.10(4.69) µM | 4.42(18.75) µM | 8.84(37.5) µM | 2.21(9.38) µM | over 80% | 4.42(18.75) µM | 4.42(18.75) µM | 2.21(9.38) µM | 2.60(11.03) µM | 60 | 1.10(4.69) µM | 2.21(9.38) µM | – | – | – | MIC (MDR P. aeruginosa 5; MDR P. aeruginosa 5, MH broth, 37 °C, 18 h, OD600): 2.21(9.38) µM; biofilm formation inhibited [3]: 80%; MIC (E. coli CMCC44102; E. coli CMCC44102, MH broth, 37 °C, 18 h, OD600): 2.21(9.38) µM; hemolysis (human erythrocytes): 10%; killing in the bottom layer of the biofilm (VRSA 52 biofilms): 50%; killing in the surface layer of the biofilm (dead cells) (VRSA 52 biofilms): 95%; MIC (E. faecalis 2; E. faecalis 2, MH broth, 37 °C, 18 h, OD600): 4.42(18.75) µM; killing at the bottom of the biofilm [5]: more than 75%; biofilm formation inhibited (VRSA 52 biofilm): 60%; biofilm formation inhibited [6]: 50%; biofilm formation inhibited [7]: 60% |
| O=C(O)c1cn(C2CC2)c2cc(N3CCNCC3)c(F)cc2c1=O [ciprofloxacin] | – | – | – | – | – | – | – | – | – | – | – | – | – | – | – | – | – | – | – | change of MIC over 20 generations (E. coli ATCC25922 [8]): 64 fold |
| GIGKFLKKAKKFGKAFVKILKK-NH2 [MSI‐78] | 7.57(18.75) µM | 3.79(9.38) µM | 3.79(9.38) µM | 7.57(18.75) µM | 3.79(9.38) µM | 7.57(18.75) µM | 7.57(18.75) µM | 3.79(9.38) µM | 58% | 7.57(18.75) µM | 7.57(18.75) µM | 7.57(18.75) µM | 7.67(18.99) µM | 25 | 3.79(9.38) µM | 3.79(9.38) µM | 15.14(37.5) µM | 15.14(37.5) µM | 30.28(75) µM | MIC (MDR P. aeruginosa 5; MDR 5, 18 h): 1.89(4.69) µM; MIC (VRSA 11): 15.14(37.5) µM; MIC (E. coli CMCC44102; CMCC44102, 18 h): 15.14(37.5) µM; MIC (E. faecalis 2; 2, 18 h): 15.14(37.5) µM |
| ILRWPWWPWRRK-NH2 [Omiganan] | – | – | – | – | – | – | – | – | – | – | – | – | – | – | – | – | 18.75(10.54) µg mL^−1 | >100(56.21) µg mL^−1 | 75(42.15) µg mL^−1 | MIC (S. aureus CMCC26003): 2.34(1.32) µg mL^−1; MIC (A. baumannii ATCC19606): 75(42.15) µg mL^−1; MIC (S. aureus 15772): 18.75(10.54) µg mL^−1; MIC (MRSA ATCC43300): 37.5(21.08) µg mL^−1; MIC (P. aeruginosa ATCC27853): 18.75(10.54) µg mL^−1; MIC (S. aureus 15192): 18.75(10.54) µg mL^−1; MIC (E. coli ATCC25922 [9]): 18.75(10.54) µg mL^−1; MIC (S. typhimurium ATCC14028): 37.5(21.08) µg mL^−1; GM: geometric mean of MIC from tested bacterial strains (13 bacterial strains): 36.00 µg/mL; MIC (VRSA 52): 9.38(5.27) µg mL^−1 |
